# Test results from patent US20260132127A1, “NOVEL SPIRO COMPOUND” (MITSUBISHI TANABE PHARMA CORPORATION, priority 2021, published 2026).
# Molecular target: T1, human TRH-DE (Homo sapiens, UniProt Q9UKU6)
# T1 construct: expressed in transfected cells; host or cells: Expi 293 cells (transient expression), membrane fraction
# T1 sequence (Q9UKU6 1-1069): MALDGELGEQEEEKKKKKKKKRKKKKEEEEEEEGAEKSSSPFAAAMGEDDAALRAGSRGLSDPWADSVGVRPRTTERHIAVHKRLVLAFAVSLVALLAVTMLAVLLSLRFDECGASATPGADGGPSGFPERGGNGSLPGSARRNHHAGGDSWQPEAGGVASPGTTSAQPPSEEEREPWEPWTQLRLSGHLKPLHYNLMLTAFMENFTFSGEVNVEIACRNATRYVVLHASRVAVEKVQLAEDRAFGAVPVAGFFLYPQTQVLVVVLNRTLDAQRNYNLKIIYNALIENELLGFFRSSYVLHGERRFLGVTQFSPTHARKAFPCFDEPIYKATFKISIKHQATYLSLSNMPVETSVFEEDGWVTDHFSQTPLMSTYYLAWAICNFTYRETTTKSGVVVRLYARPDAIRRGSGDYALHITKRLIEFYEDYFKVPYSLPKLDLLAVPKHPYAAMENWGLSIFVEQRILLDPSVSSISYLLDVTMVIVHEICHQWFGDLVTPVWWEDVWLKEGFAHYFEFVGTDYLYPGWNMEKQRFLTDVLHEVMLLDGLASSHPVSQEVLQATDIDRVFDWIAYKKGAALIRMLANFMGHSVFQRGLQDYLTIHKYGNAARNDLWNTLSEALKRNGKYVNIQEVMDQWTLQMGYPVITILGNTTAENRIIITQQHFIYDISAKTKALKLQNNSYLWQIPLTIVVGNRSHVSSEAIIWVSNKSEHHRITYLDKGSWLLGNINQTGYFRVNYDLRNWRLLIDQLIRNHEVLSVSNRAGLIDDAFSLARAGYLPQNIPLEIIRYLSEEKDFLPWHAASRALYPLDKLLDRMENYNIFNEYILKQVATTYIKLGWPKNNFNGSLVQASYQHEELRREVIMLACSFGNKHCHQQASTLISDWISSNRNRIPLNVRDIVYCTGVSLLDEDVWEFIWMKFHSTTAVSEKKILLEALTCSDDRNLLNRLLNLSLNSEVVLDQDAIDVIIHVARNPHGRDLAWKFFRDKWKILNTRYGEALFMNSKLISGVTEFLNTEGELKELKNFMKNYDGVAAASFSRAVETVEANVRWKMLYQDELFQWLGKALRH
# Assay: TRH-DE inhibition test (RapidFire MS measurement of product Cyclo (His-Pro))
# Format: biochemical
# Details: membrane fraction of Expi 293 cells expressing human TRH-DE; 10 μM TRH substrate; room temperature, 2 hours; 16-point concentration test
# Description: The compounds described in “1. […] The enzyme inhibitory activity of each of the compounds was evaluated by measuring the amount of the product Cyclo (His-Pro) of the enzyme reaction using a RapidFire RF 365 HTMS system (manufactured by Agilent Technologies, Inc.) connected to a triple quadrupole mass spectrometer (API 4000, manufactured by SCIEX). A membrane fraction prepared from Expi 293 cells transiently expressing human TRH-DE was used as an enzyme. The membrane fraction was suspended in 4 μg/ml of a reaction buffer (50 mM sodium phosphate (pH 7.4), 25 mM NaCl, 0.01% Triton […], and 200 μM bacitracin) and mixed with the test compound at each concentration. 10 μM […]), which was a substrate, was added, and the mixture was reacted at room temperature for 2 hours. The reaction was stopped in the same amount of a solution of acetonitrile:methanol (1:1) containing 1 μM of the stable isotope Cyclo ([…]) as an internal standard, and the supernatant was collected after centrifugation. In the RapidFire RF 365 HTMS system, a portion of the supernatant was aspirated, loaded onto a Graphic Carbon column (manufactured by Agilent Technologies, Inc.) with a buffer A (water, 0.09% formic acid, 0.01% trifluoroacetic acid) and washed with ultrapure water. Next, washing was performed with acetonitrile. The contents in the column were eluted with a buffer B (80% acetonitrile, 0.09% formic acid, 0.01% trifluoroacetic acid) and injected into a mass spectrometer for analysis. […] The ESI voltage was set to 5,500 V and the temperature was set to 650° C. For the calculation of the inhibition rate, a Ratio value corrected by dividing the product amount by the internal standard amount was used. The inhibition rate (%) was calculated by % Inhibition={1-(Ratio value of sample-Ratio value of blank)/(Ratio value of control-Ratio value of blank)}×100. The IC50 value was calculated from the concentration reactivity test at 16 points.
row,Structure (SMILES),IC50
1,C[C@@H]1COc2cc(N(C)CC3CCCCC3)ncc2C(=O)N1C1CC2(C1)CN(S(=O)(=O)c1ccccc1F)C2 [Example 138],1 nM
2,C[C@@H]1COc2cc(Cl)cnc2C(=O)N1C1CC2(C1)CN(S(=O)(=O)c1ccccc1F)C2 [Example 13],2 nM
3,C[C@@H]1COc2cc(C(F)(F)F)ncc2C(=O)N1C1CC2(C1)CN(S(=O)(=O)c1ccccc1F)C2 [Example 24],3 nM
4,"C[C@@H]1CCN(c2ccccn2)CC(=O)N1C1CC2(C1)CN(S(=O)(=O)c1ccccc1F)C2 [Example 456, (7R)-1-[2-(2-fluorophenyl)sulfonyl-2-azaspiro[3.3]heptan-6-yl]-7-methyl-4-pyridin-2-yl-1,4-diazepan-2-one]",90 nM
5,C[C@@H]1COc2noc(C3CC3)c2C(=O)N1C1CC2(C1)CN(S(=O)(=O)c1ccccc1F)C2 [Example 220],12 nM
6,"CC1c2cc(C(F)(F)F)cnc2C(=O)N1C1CC2(C1)CN(S(=O)(=O)c1ccccc1F)C2 (stereo not shown) [Example 290, 6-[2-(2-fluorophenyl)sulfonyl-2-azaspiro[3.3]heptan-6-yl]-5-methyl-3-(trifluoromethyl)-5H-pyrrolo[3,4-b]pyridin-7-one]",104 nM
7,"CC1c2cc(C(F)(F)F)cnc2C(=O)N1C1CC2(C1)CN(S(=O)(=O)c1ccccc1F)C2 (single isomer, unassigned) [Example 365]",160 nM
8,Cc1ccsc1S(=O)(=O)N1CC2(CC(N3C(=O)c4cccnc4OCC3C)C2)C1 (stereo not shown) [Example 413],183 nM
9,C[C@@H]1COc2cc(N3CCCCC3)ncc2C(=O)N1C1CC2(C1)CN(S(=O)(=O)c1ccccc1F)C2 [Example 149],1 nM
10,C[C@@H]1CNc2ncc(C(F)(F)F)cc2C(=O)N1C1CC2(C1)CN(S(=O)(=O)c1ccccc1F)C2 [Example 256],3 nM
11,CC1C=Cc2ncc(F)cc2C(=O)N1C1CC2(C1)CN(S(=O)(=O)c1ccccc1F)C2 (racemic) [Example 114],61 nM
12,C[C@@H]1COc2c(cnn2C(C)(C)C)C(=O)N1C1CC2(C1)CN(S(=O)(=O)c1ccccc1F)C2 [Example 203],34 nM
13,"C[C@@H]1COc2c(cnn2C)C(=O)N1C1CC2(C1)CN(S(=O)(=O)c1ccccc1F)C2 [Example 170, (6R)-5-[2-(2-fluorophenyl)sulfonyl-2-azaspiro[3.3]heptan-6-yl]-1,6-dimethyl-6,7-dihydropyrazolo[4,3-f][1,4]oxazepin-4-one]",7 nM
14,Cc1nn(C2CC3(C2)CN(S(=O)(=O)c2ccccc2)C3)c(=O)c2ccccc12 [Example 241],616 nM
15,C[C@@H]1COc2nc(OC3CC3)ncc2C(=O)N1C1CC2(C1)CN(S(=O)(=O)c1ccccc1F)C2 [Example 373],5 nM
16,COC1CCN(c2ncc3c(n2)OC[C@@H](C)N(C2CC4(C2)CN(S(=O)(=O)c2ccccc2F)C4)C3=O)CC1 [Example 387],4 nM
17,Cc1ncc2c(n1)OC[C@@H](C)N(C1CC3(C1)CN(S(=O)(=O)c1ccccc1F)C3)C2=O [Example 318],9 nM
18,C[C@@H]1COc2cc(N3CCCCCC3)ncc2C(=O)N1C1CC2(C1)CN(S(=O)(=O)c1ccccc1F)C2 [Example 159],1 nM
19,"C[C@@H]1COc2nc(C(F)F)cnc2C(=O)N1C1CC2(C1)CN(S(=O)(=O)c1ccccc1F)C2 [Example 341, (7R)-3-(difluoromethyl)-8-[2-(2-fluorophenyl)sulfonyl-2-azaspiro[3.3]heptan-6-yl]-7-methyl-6,7-dihydropyrazino[2,3-f][1,4]oxazepin-9-one]",5 nM
20,Cc1nc2c(cc1Br)C(=O)N(C1CC3(C1)CN(S(=O)(=O)c1ccccc1F)C3)[C@H](C)CO2 [Example 37],6 nM

row,Structure (SMILES),IC50
1,C[C@@H]1C=Cc2nc(C(C)(F)F)sc2C(=O)N1C1CC2(C1)CN(S(=O)(=O)c1ccccc1F)C2 [Example 117],46 nM
2,O=C1c2ccc(C(F)(F)F)nc2OCC2(CC2)N1C1CC2(C1)CN(S(=O)(=O)c1ccccc1F)C2 [Example 62],393 nM
3,C[C@@H]1CCn2nc(C(F)(F)F)cc2C(=O)N1C1CC2(C1)CN(S(=O)(=O)c1ccccc1F)C2 [Example 193],25 nM
4,C[C@@H]1COc2c(cnn2CC(F)(F)F)C(=O)N1C1CC2(C1)CN(S(=O)(=O)c1ccccc1F)C2 [Example 201],20 nM
5,C[C@@H]1COc2nc(N3CCC3)ncc2C(=O)N1C1CC2(C1)CN(S(=O)(=O)c1ccccc1F)C2 [Example 395],3 nM
6,Cc1noc2c1C(=O)N(C1CC3(C1)CN(S(=O)(=O)c1ccccc1F)C3)[C@H](C)C=C2 [Example 132],131 nM
7,C[C@@H]1CNc2cc(Cl)cnc2C(=O)N1C1CC2(C1)CN(S(=O)(=O)c1ccccc1F)C2 [Example 253],8 nM
8,"COc1ccc2c(n1)OC[C@@H](C)N(C1CC3(C1)CN(S(=O)(=O)c1ccccc1F)C3)C2=O [Example 163, (3R)-4-[2-(2-fluorophenyl)sulfonyl-2-azaspiro[3.3]heptan-6-yl]-8-methoxy-3-methyl-2,3-dihydropyrido[3,2-f][1,4]oxazepin-5-one]",8 nM
9,C[C@@H]1C=Cc2nc([C@H]3C[C@H]3F)sc2C(=O)N1C1CC2(C1)CN(S(=O)(=O)c1ccccc1F)C2 [Example 123],15 nM
10,O=C1c2cccnc2CC(C(F)(F)F)N1C1CC2(C1)CN(S(=O)(=O)c1ccccc1F)C2 (stereo not shown) [Example 68],120 nM
11,C[C@@H]1COc2c(c(C3CC3)nn2C)C(=O)N1C1CC2(C1)CN(S(=O)(=O)c1ccccc1F)C2 [Example 206],5 nM
12,CC1CCc2ncc(F)cc2C(=O)N1C1CC2(C1)CN(S(=O)(=O)c1ccccc1F)C2 (racemic) [Example 88],147 nM
13,CC1CCc2cc(C(F)(F)F)cnc2C(=O)N1C1CC2(C1)CN(S(=O)(=O)c1ccccc1F)C2 (racemic) [Example 86],60 nM
14,C[C@@H]1Cn2nc(C3CC3)c(F)c2C(=O)N1C1CC2(C1)CN(S(=O)(=O)c1ccccc1F)C2 [Example 231],13 nM
15,"C[C@@H]1CCN(S(C)(=O)=O)CC(=O)N1C1CC2(C1)CN(S(=O)(=O)c1ccccc1F)C2 [Example 455, (7R)-1-[2-(2-fluorophenyl)sulfonyl-2-azaspiro[3.3]heptan-6-yl]-7-methyl-4-methylsulfonyl-1,4-diazepan-2-one]",291 nM
16,"CCCN(C(=O)c1cccnc1OC)C1CC2(C1)CN(S(=O)(=O)c1cccc(C)c1)C2 [Example 414, 2-methoxy-N-[2-(3-methylphenyl)sulfonyl-2-azaspiro[3.3]heptan-6-yl]-N-propylpyridine-3-carboxamide]",618 nM
17,C[C@@H]1COc2nc(C3CCC3)ncc2C(=O)N1C1CC2(C1)CN(S(=O)(=O)c1ccccc1F)C2 [Example 367],8 nM
18,C[C@@H]1CCn2cnc(C3CC3)c2C(=O)N1C1CC2(C1)CN(S(=O)(=O)c1ccccc1F)C2 [Example 310],41 nM
19,C[C@@H]1COc2nc(Cl)c(F)cc2C(=O)N1C1CC2(C1)CN(S(=O)(=O)c1ccccc1F)C2 [Example 36],21 nM
20,CC1Cc2cccnc2C(=O)N1C1CC2(C1)CN(S(=O)(=O)c1ccccc1F)C2 (racemic) [Example 65],27 nM
